In article PMC7774954, “Interactomic affinity profiling by holdup assay: Acetylation and distal residues impact the PDZome-binding specificity of PTEN phosphatase” (PLoS ONE, 2020):

Tested on: 266 human PDZ domains (PDZome)
Test: Holdup assay (chromatographic retention, PDZome-binding profile, BI)
Parameters: key to maximal BI / Max BI / BI: binding intensity: 0.00 = no binding, 1.00 = maximal binding
Method: The holdup method is a chromatographic approach in solution developed in our group that allows to measure the binding strength of a peptide, attached to a resin, against a library of domains of a same family. We initially proposed this method to explore the interaction between PBM peptides and the human PDZ domains. Briefly, a soluble cell lysate containing individually overexpressed PDZ domain is incubated until equilibrium with a calibrated amount of streptavidin-resin saturated either with the target biotinylated PBM peptide or with biotin as a reference. The flow-throughs containing the unbound protein fraction are recovered by filtration and loaded on a capillary electrophoresis instrument to quantify the amount of remaining free PDZ. The stronger the steady-state depletion of the PDZ domain in the flow-through as compared to the reference, the stronger the PDZ/PBM binding interaction. The assay is particularly suited to quantitatively evaluate and compare large numbers of interactions. This method delivers, for each PBM/PDZ pair, a "binding intensity" (BI), whose value can in principle range from 0.00 (no binding event detected) to 1.00 (maximal binding event). The approach has been automated and the human PDZ library was recently extended to the complete 266 PDZ domains known in human proteome. […] The high accuracy and efficiency of the holdup assay have been validated previously. Very recently, a manual version of the holdup assay with purified samples and using widespread benchtop equipment has been implemented and has proven to be reliable.
The 266 PDZ domains that constitute the PDZ library (“PDZome V.2”) used in the present work were produced using constructs with optimized boundaries as described previously. All the genes were fused to Maltose-Binding Protein (MBP) or Thioredoxin (THR) tag often used to facilitate the solubilisation of the over-expressed protein, by cloning them into the pETG41A or pETG20A plasmid, respectively. […] The expressed tag-PDZ concentrations were quantified using capillary gel electrophoresis and cell lysates were diluted to reach approximately 5 μM tag-PDZ before freezing in 96-well plates. A detailed protocol of the PDZ library production, expression and benchmarking can be found in [32]. PDZ domains are named according to their originating protein name followed by the PDZ number (e.g. NHERF1-1 as the first PDZ domain of the NHERF1 protein).
The holdup assay was performed on a Tecan freedom Evo200 robot with 384-well plates in singlicate for the three 11-mer PTEN variants and the 13-mer PTEN peptide as described in [31, 32]. Briefly, prior to interaction assay, 2.5 μL of streptavidin resin was saturated in each well with 20 μL of biotinylated PBM peptides (42 μM) and then washed twice with an excess of free biotin, while the reference resin was incubated only with biotin. Right before the holdup experiment, the PDZ library was spiked with an internal standard of lysozyme. Then, the biotin- or PBM-saturated resin was incubated, each in a distinct well of a 384-well plate, with complete cell lysates diluted so that the concentration of the tag-PDZ present in the crude extract is adjusted at 4 μM. After a sufficient time to reach complex equilibrium (15 min.), a fast and mild filtration step is performed and the tag-PDZ concentrations were measured by capillary electrophoresis instrument (LabChip GXII, PerkinElmer, Massachusets, USA). Standard markers were used to convert migration time into molecular weight on the LabChip software and inappropriate molecular weight markers were corrected or excluded.
Holdup data quality check and processing […]

With `CC[C@H](C)[C@H](NC(=O)[C@H](CCC(N)=O)NC(=O)[C@@H](NC(=O)[C@H](Cc1c[nH]cn1)NC(=O)[C@H](CCC(N)=O)NC(=O)[C@H](CC(=O)O)NC(=O)[C@H](CCC(=O)O)NC(=O)[C@H](CC(=O)O)NC(=O)CCC(=O)NCCCOCCOCCOCCCNC(=O)CCCC[C@@H]1SC[C@@H]2NC(=O)N[C@@H]21)[C@@H](C)O)C(=O)N[C@H](C(=O)N[C@@H](CCCCNC(C)=O)C(=O)N[C@H](C(=O)O)C(C)C)[C@@H](C)O` [PTEN_Ac] the “number of additional new PDZ partners not detected for PTEN_11” value (BI>0.20, compared with PTEN_11) was “at least 20”, the BI (PDZ domain MPDZ-2) was 0.353 and the BI (PDZ domain MPDZ-3) was 0.002. It also gave a BI (PDZ domain MPDZ-4) of 0.029, a BI (PDZ domain MPDZ-5) of -0.014 and a BI (PDZ domain MPDZ-6) of -0.058. For the same compound, the BI (PDZ domain MPDZ-7) was 0.624, the BI (PDZ domain MPDZ-8) was 0.172 and the BI (PDZ domain MPDZ-9 (gene NHERF2, 2)) was 0.016. The BI (PDZ domain MPDZ-12) was 0.019, the BI (PDZ domain MPDZ-13) was 0.351 and the BI (PDZ domain MPP1-1) was -0.054. For the same compound, the BI (PDZ domain MPP3-1) was -0.063, the BI (PDZ domain MPP4-1) was -0.043 and the BI (PDZ domain MPP5-1) was -0.048. For the same compound, the BI (PDZ domain MPP6-1) was -0.03, the BI (PDZ domain MPP7-1) was -0.045 and the BI (PDZ domain NHERF1-2) was 0.046. The BI (PDZ domain NHERF3-1) was 0.45, the BI (PDZ domain NHERF3-2) was 0.105 and the BI (PDZ domain NHERF3-3) was 0.021. It also gave a BI (PDZ domain NHERF3-4) of -0.017, a BI (PDZ domain NHERF4-1) of -0.007 and a BI (PDZ domain NHERF4-2) of 0.014. For the same compound, the BI (PDZ domain NHERF4-3) was -0.031, the BI (PDZ domain NHERF4-4) was -0.03 and the BI (PDZ domain NOS1-1) was 0.106. The BI (PDZ domain PARD3-1, first of two lines so named (r186)) was 0.035, the BI (PDZ domain PARD3-1, second of two lines so named (r187)) was -0.073 and the BI (PDZ domain PARD3-2) was 0.074. The BI (PDZ domain PARD3B-1) was -0.205, the BI (PDZ domain PARD3B-2) was -0.04 and the BI (PDZ domain PARD3B-3) was -0.007. The BI (PDZ domain PARD6A-1) was 0.007, the BI (PDZ domain PARD6G-1) was -0.034 and the BI (PDZ domain PCLO-1) was -0.088. The BI (PDZ domain PDLIM1-1) was -0.087, the BI (PDZ domain PDLIM3-1) was -0.026 and the BI (PDZ domain PDLIM4-1) was -0.03. The BI (PDZ domain PDLIM5-1) was -0.022, the BI (PDZ domain PDLIM7-1) was -0.025 and the BI (PDZ domain PDZD2-1) was -0.095. For the same compound, the BI (PDZ domain PDZD2-2) was 0.195, the BI (PDZ domain PDZD2-3) was 0.017 and the BI (PDZ domain PDZD2-5) was -0.091. For the same compound, the BI (PDZ domain PDZD2-6) was -0.026, the BI (PDZ domain PDZD4-1) was 0.085 and the BI (PDZ domain PDZD7-1) was -0.051. For the same compound, the BI (PDZ domain PDZD7-3) was 0.901, the BI (PDZ domain PDZD8-1) was -0.202 and the BI (PDZ domain PDZD9-1) was -0.019. For the same compound, the BI (PDZ domain PDZD11-1) was -0.017, the BI (PDZ domain PDZRN3-1) was -0.019 and the BI (PDZ domain PDZRN3-2) was 0.016. It also gave a BI (PDZ domain PDZRN4-1) of -0.064, a BI (PDZ domain PDZRN4-2) of 0.099 and a BI (PDZ domain PICK1-1) of 0.052. It also gave a BI (PDZ domain PPP1R9A-1) of 0.066, a BI (PDZ domain PPP1R9B-1) of -0.044 and a BI (PDZ domain PREX1-1) of -0.014. It also gave a BI (PDZ domain PREX2-2) of 0.096, a BI (PDZ domain PRX-1) of -0.021 and a BI (PDZ domain PSCDBP-1) of -0.005. For the same compound, the BI (PDZ domain PSMD9-1) was -0.007, the BI (PDZ domain PTPN3-1) was 0.05 and the BI (PDZ domain PTPN4-1) was 0.02. It also gave a BI (PDZ domain PTPN13-1) of -0.024, a BI (PDZ domain PTPN13-3) of -0.028 and a BI (PDZ domain PTPN13-5) of -0.046. It also gave a BI (PDZ domain RADIL-1) of 0.522, a BI (PDZ domain RAPGEF2-1) of -0.076 and a BI (PDZ domain RAPGEF6-1) of 0.035. The BI (PDZ domain RGS3-1) was -0.001, the BI (PDZ domain RGS12-1) was 0.033 and the BI (PDZ domain RHPN2-1) was -0.044. The BI (PDZ domain RIMS1-1) was -0.02, the BI (PDZ domain RIMS2-1) was -0.022 and the BI (PDZ domain SCRIB-2) was 0.163. For the same compound, the BI (PDZ domain SCRIB-4) was 0.058, the BI (PDZ domain SDCBP2-2) was -0.013 and the BI (PDZ domain SDCBP-2) was -0.05. It also gave a BI (PDZ domain SHANK1-1) of 0.152, a BI (PDZ domain SHANK2-1) of 0.209 and a BI (PDZ domain SHANK3-1) of 0.235. The BI (PDZ domain SHROOM2-1) was -0.072, the BI (PDZ domain SHROOM3-1) was -0.048 and the BI (PDZ domain SHROOM4-1) was -0.073. For the same compound, the BI (PDZ domain SIPA1L2-1) was -0.001, the BI (PDZ domain SIPA1L3-1) was -0.046 and the BI (PDZ domain SNTA1-1) was 0.41. The BI (PDZ domain SNTB1-1) was 0.548, the BI (PDZ domain SNTG1-1) was 0.345 and the BI (PDZ domain SNTG2-1) was -0.077. It also gave a BI (PDZ domain STXB4-1) of -0.072, a BI (PDZ domain SYNJ2BP-1) of 0.023 and a BI (PDZ domain SYNP2-1) of 0.005. The BI (PDZ domain SYNPO2L-1) was 0.063, the BI (PDZ domain TIAM1-1) was -0.072 and the BI (PDZ domain TIAM2-1) was -0.008. The BI (PDZ domain TJP1-1) was 0.198, the “number of PDZ domains identified as potential binders (BI>0.20)” value (holdup, singlicate, threshold BI>0.20) was 43 PDZ domains and the “maximal BI” value (holdup, singlicate, highest BI in the PDZome profile, BI standard error ~0.07) was 0.90. For the same compound, the “binding of several PDZ domains (in words)” value (including several ones from MAGI and NHERF) was “detectably bound”, the “Max BI” value (maximum over PDZome) was 0.90 and the “number of partners detected for PTEN_Ac and not for PTEN_KR” value (over a total of 43) was 15.
